According to patent US10723723B2, “Substituted bicycle heterocyclic derivatives useful as ROMK channel inhibitors” (BRISTOL-MYERS SQUIBB COMPANY, priority 2016, dated 2020):

molecular target: hROMK (human Kir1.1) (Homo sapiens (Human), UniProt P48048); assay: Thallium Flux Assay (FluxOR, CHO T-Rex hROMK stable cell line); type: cell-based; conditions: CHO T-Rex hROMK cells, 10-point concentration response curve; read-out: Human ROMK TH Flux IC50
Sequence (P48048 whole entry): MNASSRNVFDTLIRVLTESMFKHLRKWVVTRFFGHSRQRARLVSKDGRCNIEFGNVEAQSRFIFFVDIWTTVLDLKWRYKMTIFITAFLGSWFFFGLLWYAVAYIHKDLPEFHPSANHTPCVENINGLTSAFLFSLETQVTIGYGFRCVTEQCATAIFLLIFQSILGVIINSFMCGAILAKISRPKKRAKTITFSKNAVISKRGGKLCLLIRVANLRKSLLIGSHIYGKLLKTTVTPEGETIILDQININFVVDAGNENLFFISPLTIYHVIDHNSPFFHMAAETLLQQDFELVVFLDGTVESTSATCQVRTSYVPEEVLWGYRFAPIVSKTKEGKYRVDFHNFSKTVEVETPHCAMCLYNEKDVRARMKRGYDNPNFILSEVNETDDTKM
Experimental: Solutions and reagents: Thallium flux assay was performed using FluxOR kit (F10017, Life Technologies). Loading buffer, assay buffer and stimulus buffer were prepared using kit components.
To prepare 10 ml of loading buffer: 10 μl of FluxOR dye (reconstituted in DMSO) was first added to 100 μl of powerload concentrate and this mix along with 100 μl of Probenicid (100×) was then added to 9.79 ml of HBSS. […] Stimulus buffer was composed of 15 mM Tl2SO4, 0.75 mM K2SO4 in FluxOR chloride free buffer (diluted to 1× using deionized water). The final concentration of Tl2SO4 and K2SO4 in the assay plate was 3 mM and 0.15 mM, respectively.
Plating and induction of cells: The CHO T-Rex hROMK (human Kir1.1) stable cell line was maintained in Ham's F12 media supplemented with 10% FBS, 1% Penicillin-Streptomycin, 500 μg/ml Zeocin and 10 μg/ml Blasticidin at 37° C. in a 5% CO2 incubator. […] The cell suspension was centrifuged at 1200 rpm for 5 min. After discarding the supernatant, the cells were resuspended in fresh growth media and cell concentration was determined using a hemocytometer. […] The assay plate was kept at 37° C. in a 5% CO2 incubator.
Assay protocol: On the day of experiment, media was removed and loading buffer was added (30 μl/well) to the assay plate. The cells were incubated in the loading buffer for 30 minutes at 37° C. The loading buffer was then replaced by assay buffer (30 μl/well) followed by addition of test compounds or controls. […] Each well was read for 90 sec at 2 sec interval and the stimulus buffer was added after 20 seconds of baseline recording. The final DMSO concentration was either 0.5 or 1% in the assay plate. Positive and negative controls were defined by addition of DMSO or 3 μM of a standard ROMK inhibitor, respectively, to the wells instead of a test compound.
A 10-point concentration response curve was used to estimate the IC50 value of test compounds.

How did the IC50 turn out when `Cc1cc(-n2cc(CN(CC3CCOC3)C[C@H](O)c3ccc4c(c3C)COC4=O)cn2)ncc1C#N` (stereo partly drawn) [Example 85, 6-(4-((((R)-2-hydroxy-2-(4-methyl-1-oxo-1,3-dihydroisobenzofuran-5-yl)ethyl)((tetrahydrofuran-3-yl)methyl)amino)methyl)-1H-pyrazol-1-yl)-4-methylnicotinonitrile] was run?
Its IC50 is 230 nM.

With `Cc1cc(-n2nc(C)c(CNC[C@H](O)c3ccc4c(c3C)COC4=O)n2)ncc1C#N` [Example 58, (R)-6-(4-(((2-hydroxy-2-(4-methyl-1-oxo-1,3-dihydroisobenzofuran-5-yl)ethyl)amino)methyl)-5-methyl-2H-1,2,3-triazol-2-yl)-4-methylnicotinonitrile] as the molecule, how does the IC50 read?
Its IC50 is 300 nM.

For `Cc1c(C(CO)NCCc2cccc(-c3ccc(C#N)c(F)c3)c2)ccc2c1COC2=O` (single isomer, unassigned) [Example 15-II, 3-fluoro-3′-(2-((2-hydroxy-1-(4-methyl-1-oxo-1,3-dihydroisobenzofuran-5-yl)ethyl)amino)ethy)-[1,1′-biphenyl]-4-carbonitrile], which IC50 is on record?
The IC50 was 1500 nM.

With `Cc1cc(-n2cc(CNC[C@H](O)c3ccc4c(c3C)COC4=O)ccc2=O)ncc1C#N` [Example 99, (R)-5-(((2-hydroxy-2-(4-methyl-1-oxo-1,3-dihydroisobenzofuran-5-yl)ethyl)amino)methyl)-4′-methyl-2-oxo-2H-[1,2′-bipyridine]-5′-carbonitrile] as the molecule, how does the IC50 read?
Its IC50 is 140 nM.

Which IC50 does the source give for `CN(Cc1ccc(-c2ccc(C#N)c(F)c2)nc1)CC(O)c1ccc2oc(=O)n(C)c2c1` (single isomer, unassigned) [Example 24-I, 2-fluoro-4-(5-(((2-hydroxy-2-(3-methyl-2-oxo-2,3-dihydrobenzo[d]oxazol-5-yl)ethyl)(methyl)amino)methyl)pyridin-2-yl)benzonitrile] here?
Its IC50 is 2400 nM.

For `CN(Cc1ccc(-c2ccc(C#N)c(F)c2)cc1)Cc1ccc2c(c1)COC2=O` [Example 29, 3-fluoro-4′-((methyl((1-oxo-1,3-dihydroisobenzofuran-5-yl)methyl)amino)methyl)-[1,1′-biphenyl]-4-carbonitrile], which IC50 is on record?
The IC50 was 3300 nM.

How did the IC50 turn out when `CC(=O)N(Cc1ccc(-c2ccc(C#N)c(F)c2)cc1)CC(O)c1ccc2c(c1C)COC2=O` (single isomer, unassigned) [Example 34-I, N-((4′-cyano-3′-fluoro-[1,1′-biphenyl]-4-yl)methyl)-N-(2-hydroxy-2-(4-methyl-1-oxo-1,3-dihydroisobenzofuran-5-yl)ethyl)acetamide] was run?
The IC50 was 780 nM.

`Cc1cn(-c2ccc(CNC[C@H](O)c3ccc4c(c3C)COC4=O)c(C)n2)cn1` [Example 77] was tested. Which IC50 did it give?
The IC50 was 190 nM.

Which IC50 does the source give for `Cc1c([C@@H](O)CNCc2cnn(-c3ccc4oc(=O)n(C)c4n3)c2)ccc2c1COC2=O` [Example 145, (R)-5-(4-(((2-hydroxy-2-(4-methyl-1-oxo-1,3-dihydroisobenzofuran-5-yl)ethyl)amino)methyl)-1H-pyrazol-1-yl)-3-methyloxazolo[4,5-b]pyridin-2(3H)-one] here?
The IC50 was 130 nM.

With `Cc1c([C@@H](O)CNCc2cnn(-c3ccc4nncn4n3)c2)ccc2c1COC2=O` [Example 79, (R)-5-(2-(((1-([1,2,4]triazolo[4,3-b]pyridazin-6-yl)-1H-pyrazol-4-yl)methyl)amino)-1-hydroxyethyl)-4-methylisobenzofuran-1(3H)-one] as the molecule, how does the IC50 read?
Its IC50 is 530 nM.

Which IC50 does the source give for `Cc1c(C(O)CN(C)Cc2ccc(-n3ccc4c(C#N)cccc43)cc2)ccc2c1COC2=O` (single isomer, unassigned) [Example 28-II, 1-(4-(((2-hydroxy-2-(4-methyl-1-oxo-1,3-dihydroisobenzofuran-5-yl)ethyl)(methyl)amino)methyl)phenyl)-1H-indole-4-carbonitrile] here?
The IC50 was 390 nM.

For `Cc1cc(-n2cc(CNCC(O)c3ccc4c(c3C)C(C)OC4=O)cn2)ncc1C#N` (single isomer, unassigned) [Example 172-II, 6-(4-(((2-(3,4-dimethyl-1-oxo-1,3-dihydroisobenzofuran-5-yl)-2-hydroxyethyl)amino)meth-yl)-1H-pyrazol-1-yl)-4-methylnicotinonitrile], which IC50 is on record?
The IC50 was 1800 nM.
